Experimental data: patent US4415566A, “Cephalosporin derivatives” (Boehringer Ingelheim GmbH, priority 1979, dated 1983)
Values after ≈ are worked out from the molar mass of the structure shown. Where two headings read alike, the source gives them in different places.

Tests used:
Proteus rettgeri = test: Serial dilution test in the microtiter system (MIC), Prot. rettgeri; assay type: cell-based; conditions: Providencia rettgeri
Experimental: (§1) These tests were performed according to the method of the serial dilution test in the microtiter system. The effect of the substances on bacteriostasis was examined in a fluid medium. […] A nutrient medium of the following composition was used. 10 gm of peptone, 8 gm of meat extract-oxoid, 3 gm of sodium chloride, 2 gm of sec. sodium phosphate were diluted with distilled water to […] (pH 7.2-7.4). Only in the test against streptococci 1% of glucose was added. The age of the primary cultures was about 20 hours. The standardization of the pathogen suspension was effected by using a photometer according to "Eppendorf" (test tube dismeter 14 mm, filter 546 nm) with the aid of the turbidity of a comparison suspension consisting of barium sulfate, this suspension being prepared by addition of 3.0 ml of 1% barium chloride solution to 97 ml of 1% sulfuric acid. After the standardization, streptococcus aronson were further diluted to a concentration of 1:15 and the other microorganisms to a concentration of 1:1500 by means of a sodium chloride solution.
(§2) 16 mg of the test substance were put into a 10 ml-measuring flask and filled up to the mark with the solvent. The further dilution series was standardized with distilled water or the respective solvent.
(§3) The cavities of the microtiter plates were filled with 0.2 ml of nutrient medium. Then, 0.01 ml of the corresponding test substance dilution was added and inoculated with 0.01 ml of the standardized suspension. The bacteria were incubated at 37° C. for 18-20 hours. Control tests merely using the solvent were carried out simultaneously.
(§4) The measurement was carried out macroscopically to determine the minimal inhibitory (threshold) concentration, i.e. the lower still bacteriostatically effective concentration.
(§5) Staphylococcus aureus SG 511, Escherichia coli ATCC 11 775, Pseudomonas aeruginosa Hamburgensis and Pseudomonas aeruginosa Walter, Serratia marcescens ATCC 13880, Klebsiella pneumoniae ATCC 10 031 and 272, Proteus mirabilis Hamburgensis, Proteus rettgeri, Enterbacter cloaceae ATCC 13 047 and E. Coli R+TEM (β-lactamase carrier).

[1] = test system: Pseudomonas aeruginosa Hamburgensis; test: Serial dilution test in the microtiter system (MIC), Pseud. aerug. Hbg.; assay type: cell-based
Experimental: as §1, §2, §3, §4, §5

[2] = test system: Proteus mirabilis Hamburgensis; test: Serial dilution test in the microtiter system (MIC), Prot. mirabilis; assay type: cell-based
Experimental: as §1, §2, §3, §4, §5

[3] = test system: Pseudomonas aeruginosa Walter; test: Serial dilution test in the microtiter system (MIC), Pseud. aerug. Walter; assay type: cell-based
Experimental: as §1, §2, §3, §4, §5

[4] = test system: Enterbacter cloaceae ATCC 13 047; test: Serial dilution test in the microtiter system (MIC), Eb. cloaceae ATCC 13047; assay type: cell-based
Experimental: as §1, §2, §3, §4, §5

[5] = test system: Escherichia coli ATCC 11 775; test: Serial dilution test in the microtiter system (MIC), E. Coli ATCC 11775; assay type: cell-based
Experimental: as §1, §2, §3, §4, §5

[6] = test system: Klebsiella pneumoniae ATCC 10 031; test: Serial dilution test in the microtiter system (MIC), Klebs. pneum. ATCC 10031; assay type: cell-based
Experimental: as §1, §2, §3, §4, §5

[7] = test system: Staphylococcus aureus SG 511; test: Serial dilution test in the microtiter system (MIC), S. aureus SG 511; assay type: cell-based
Experimental: as §1, §2, §3, §4, §5

[8] = test system: Serratia marcescens ATCC 13880; test: Serial dilution test in the microtiter system (MIC), Serrat. marcesc. ATCC 13880; assay type: cell-based
Experimental: as §1, §2, §3, §4, §5

[9] = test system: Klebsiella pneumoniae 272; test: Serial dilution test in the microtiter system (MIC), Klebs. pneum. 272; assay type: cell-based
Experimental: as §1, §2, §3, §4, §5

E. coli ATCC 11775 = test: In vivo activity in mice, E. coli infection; parameters: species or system Female NMRI mice; conditions: Escherichia coli, ATCC11775, iPSC, sc, 168 h; E. coli infection i.p.; s.c. administration; per dose; observation 7 days; read-out: ED50 (dose at which 50% of the animals survived)
Experimental: (§6) A number of compounds of this invention were tested in vivo in mice against experimental infections. Bacteria E. coli ATCC 11775 and Psuedomonas aeruginosa Walter were used as pathogens. An intraperitoneal infection with 0.2 ml of a 5% suspension of the bacteria was induced. This corresponds to about 2×10^6 E. Coli germs and 8×10^5 pseudomonas germs/mouse. […] The groups with E. coli infection were treated with the test compound three times on the first day (1, 4, and 7 hours post infectionem) and for two days thereafter twice a day. The groups with the pseudomonas infection were treated with the test compound 6 times on the first day (1, 3, 6, 9, 12 and 15 hours post infectionem) and for two days thereafter twice a day. The observation time was in both cases 7 days. The results of these tests with representatives of the penicillins and cephalosporins according to the invention are shown in the following table: […]

E. Coli ATCC 9637 = test: Serial dilution test in the microtiter system (MIC), E. Coli ATCC 9637; assay type: cell-based; conditions: Escherichia coli, ATCC9637
[10] = test system: Psuedomonas aeruginosa Walter; test: In vivo activity in mice, Pseudomonas infection; parameters: species or system Female NMRI mice; conditions: for ED50: Mus musculus, iPSC, sc, 168 h, Pseudomonas infection i.p., s.c. administration, per dose, observation 7 days, read-out: ED50 (dose at which 50% of the animals survived)
Experimental: as §6

[11] = Table IV, Prot. rettg., 37° C., 18-20 hours, read-out: MIC
[12] = Table IV, Prot. mir. Hbg., 37° C., 18-20 hours, read-out: MIC
[13] = Table IV, Eb. cloaceae, 37° C., 18-20 hours, read-out: MIC
[14] = Table IV, E. Coli ATCC 11775, 37° C., 18-20 hours, read-out: MIC
[15] = Table IV, Klebs. pneum. ATCC 10031, 37° C., 18-20 hours, read-out: MIC
[16] = SG511, Table IV, S. aureus SG 511, 37° C., 18-20 hours, read-out: MIC
[17] = ATCC13880, Table IV, Serr. marcesc. ATCC 13880, 37° C., 18-20 hours, read-out: MIC
[18] = Table IV, Klebs. pneum. 272, 37° C., 18-20 hours, read-out: MIC
[19] = Table III, Prot. rettgeri, 37° C., 18-20 hours, read-out: MIC
[20] = Table III, Pseud. aerug. Hbg., 37° C., 18-20 hours, read-out: MIC
[21] = Table III, E. Coli ATCC 9637, 37° C., 18-20 hours, read-out: MIC
[22] = ATCC13880, Table III, Serrat. marcesc. ATCC 13880, 37° C., 18-20 hours, read-out: MIC

Row | SMILES | MIC (Proteus rettgeri; [11]) [µg/mL] | MIC [1] [µg/mL] | MIC [2, 12] [µg/mL] | MIC [3] [µg/mL] | MIC [4, 13] [µg/mL] | MIC [5, 14] [µg/mL] | MIC [6, 15] [µg/mL] | MIC [7, 16] [µg/mL] | MIC [8, 17] [µg/mL] | MIC [9, 18] [µg/mL] | ED50 (E. coli ATCC 11775) [mg/kg] | MIC [4] [µg/mL] | MIC [2] [µg/mL] | MIC [5] [µg/mL] | MIC [6] [µg/mL] | MIC [8, 22] [µg/mL] | ED50 [10] [mg/kg] | MIC [9]; 272 [µg/mL] | other results
1 | Cn1nnnc1SCC1=C(C(=O)O)N2C(=O)[C@@H](NC(=O)[C@H](NC(=O)Nc3cnc(Nc4ccc([S+](C)[O-])nc4)nc3O)c3ccc(O)cc3)[C@H]2SC1 (some centres unmarked) [O] | 0.5 (≈ 0.65 µM) | 4 (≈ 5.2 µM) | 0.12 (≈ 0.156 µM) | 4 (≈ 5.2 µM) | 0.5 (≈ 0.65 µM) | 0.25 (≈ 0.325 µM) | 0.25 (≈ 0.325 µM) | 0.25 (≈ 0.325 µM) | 0.5 (≈ 0.65 µM) | 0.25 (≈ 0.325 µM) |  |  |  |  |  |  |  |  | 
2 | Cn1nnnc1SCC1=C(C(=O)O)N2C(=O)[C@@H](NC(=O)[C@H](NC(=O)Nc3cnc(NCc4cccs4)nc3O)c3ccc(O)cc3)[C@H]2SC1 [N] | 0.5 (≈ 0.689 µM) | 8 (≈ 11 µM) | 0.12 (≈ 0.165 µM) | 4 (≈ 5.51 µM) | 0.25 (≈ 0.344 µM) | 0.25 (≈ 0.344 µM) | 0.25 (≈ 0.344 µM) | 0.5 (≈ 0.689 µM) | 0.25 (≈ 0.344 µM) | 0.25 (≈ 0.344 µM) | 0.6 |  |  |  |  |  |  |  | 
3 | CC(=O)OCC1=C(C(=O)O)N2C(=O)[C@@H](NC(=O)[C@H](NC(=O)Nc3cnc(NCc4ccco4)nc3O)c3ccc(O)cc3)[C@H]2SC1 [K] | 1 (≈ 1.53 µM) |  | 0.25 (≈ 0.382 µM) | 8 (≈ 12.2 µM) |  | 0.5 (≈ 0.765 µM) | 1 (≈ 1.53 µM) |  |  | 1 (≈ 1.53 µM) |  | 4 (≈ 6.12 µM) |  |  |  |  |  |  | MIC ([1]; Table IV, Pseud. aerug. Hbg., 37° C., 18-20 hours, read-out: MIC): 16 µg/mL (≈ 24.5 µM); MIC ([7]; SG511): 1 µg/mL (≈ 1.53 µM); MIC ([8]; ATCC13880): 2 µg/mL (≈ 3.06 µM)
4 | CC1(C)S[C@@H]2[C@H](NC(=O)[C@H](NC(=O)Nc3cnc(NCc4ccco4)nc3O)c3ccc(O)cc3)C(=O)N2[C@H]1C(=O)O [D, D-α-{3-[4-Hydroxy-2-(2'-furylmethylamino)-5-pyrimidinyl]-ureido}-p-hydroxy-benzyl-penicillin sodium] |  |  |  | 2 |  |  |  |  |  |  | 0.8 | 4 | 0.25 | 1 | 4 | 0.5 | 1.5 |  | MIC (Proteus rettgeri; [19]): 0.5 µg/mL; MIC [1, 20]: 1 µg/mL; MIC (E. Coli ATCC 9637; [21]): 0.5 µg/mL; MIC ([9]; Table III, Klebs. pneum. 272, 37° C., 18-20 hours, read-out: MIC): 8 µg/mL
5 | CC1(C)S[C@@H]2[C@H](NC(=O)[C@H](NC(=O)Nc3cnc(NCc4cccs4)nc3O)c3ccc(O)cc3)C(=O)N2[C@H]1C(=O)O [C, D-α-{3-[4-Hydroxy-2-(2'-thienylmethylamino)-5-pyrimidinyl]-ureido}-p-hydroxy-benzyl-penicillin sodium] |  | 2 |  | 1 |  |  |  |  |  |  | 0.8 |  | 0.25 |  | 2 | 0.5 | 2.5 | 2 | MIC (Proteus rettgeri): 0.12 µg/mL; MIC ([4]; Table III, Eb. cloaceae ATCC 13047, 37° C., 18-20 hours, read-out: MIC): 0.5 µg/mL; MIC ([5]; Table III, E. Coli ATCC 11775, 37° C., 18-20 hours, read-out: MIC): 0.5 µg/mL; MIC (E. Coli ATCC 9637): 0.5 µg/mL
6 | Cc1ncc(CNc2ncc(NC(=O)N[C@@H](C(=O)N[C@@H]3C(=O)N4C(C(=O)O)=C(CSc5nnnn5C)CS[C@H]34)c3ccc(O)cc3)c(O)n2)cn1 [P] | 0.25 (≈ 0.34 µM) | 4 (≈ 5.44 µM) | 0.06 (≈ 0.0815 µM) | 4 (≈ 5.44 µM) | 0.5 (≈ 0.68 µM) | 0.12 (≈ 0.163 µM) | 0.25 (≈ 0.34 µM) | 0.25 (≈ 0.34 µM) | 0.25 (≈ 0.34 µM) | 0.5 (≈ 0.68 µM) |  |  |  |  |  |  |  |  | 
7 | Cc1nnc(SCC2=C(C(=O)O)N3C(=O)[C@@H](NC(=O)Cn4cnnn4)[C@H]3SC2)s1 [Cephazolin, reference compound] |  |  |  |  |  |  | 1 (≈ 2.2 µM) | 0.06 (≈ 0.132 µM) |  |  |  |  | 4 (≈ 8.8 µM) | 4 (≈ 8.8 µM) |  |  |  | 2 (≈ 4.4 µM) | 
8 | CC1(C)S[C@@H]2[C@H](NC(=O)[C@H](NC(=O)Nc3cnc(Nc4ccc(C(N)=O)s4)nc3O)c3ccc(O)cc3)C(=O)N2[C@H]1C(=O)O [B, D-α-{3-[2-(5'-Aminocarbonyl-2'-thienylamino)-4-hydroxy-5-pyrimidinyl]-ureido}-p-hydroxy-benzyl-penicillin sodium] |  |  |  |  |  |  |  |  |  |  | 1.3 | 2 |  | 0.25 | 2 | 0.2 | 4.8 | 2 | MIC (Proteus rettgeri; [19]): 0.5 µg/mL; MIC [1, 20]: 1 µg/mL; MIC ([2]; Table III, Prot. mirabilis, 37° C., 18-20 hours, read-out: MIC): 0.06 µg/mL; MIC ([3]; Table III, Pseud. aerug. Walter, 37° C., 18-20 hours, read-out: MIC): 1 µg/mL; MIC (E. Coli ATCC 9637; [21]): 0.5 µg/mL
9 | Cn1nnnc1SCC1=C(C(=O)O)N2C(=O)[C@@H](NC(=O)[C@H](NC(=O)Nc3cnc(NCc4cccnc4)nc3O)c3ccc(O)cc3)[C@H]2SC1 [L] | 0.5 (≈ 0.694 µM) |  |  |  | 0.25 (≈ 0.347 µM) |  |  | 0.5 (≈ 0.694 µM) | 0.25 (≈ 0.347 µM) | 0.25 (≈ 0.347 µM) | 0.2 |  |  |  | 0.25 (≈ 0.347 µM) |  | 4.6 |  | 
10 | CO/N=C(\C(=O)N[C@@H]1C(=O)N2C(C(=O)O)=C(COC(N)=O)CS[C@H]12)c1ccco1 [Cefuroxim, reference compound] | 2 (≈ 4.71 µM) |  | 0.5 (≈ 1.18 µM) |  | 32 (≈ 75.4 µM) | 8 (≈ 18.9 µM) | 2 (≈ 4.71 µM) | 1 (≈ 2.36 µM) | 8 (≈ 18.9 µM) |  | 37 |  |  |  |  |  | > 200 | 4 (≈ 9.43 µM) | animals died ([10]; Pseudomonas infection, s.c., at 200 mg/kg): all animals died
